Measurements reported in paper PMC4468608, “A distinct p53 target gene set predicts for response to the selective p53–HDM2 inhibitor NVP-CGM097” (eLife, 2015).

Test system: cell lines from the Cancer Cell Line Encyclopedia (CCLE)
Experiment: High-throughput cell viability assay, CCLE cell line panel (n = 356)
Format: cell-based, human
Procedure: Cell lines were partitioned into sensitive and insensitive groups based on compound potency (IC50). […] All other cell lines were obtained from ATCC (American Type Culture Collection), DSMZ (Deutsche Sammlung von Mikroorganismen und Zellkulturen), and HSRRB (Health Science Research Resources Bank) and cultured in RPMI or Dulbecco's modified Eagle's medium plus 10% FBS (Invitrogen, Carlsbad, CA) at 37°C, 5% CO2.

COc1cc2c(cc1OC(C)C)[C@H](c1ccc(Cl)cc1)N(c1ccc(N(C)C[C@H]3CC[C@H](N4CCNC(=O)C4)CC3)cc1)C(=O)C2 [NVP-CFC218]
Amax (42-MG-BA, TP53 MUT): -30.94%
sensitivity call (42-MG-BA, TP53 MUT): insensitive (Sensitivity call for each compound was applied according to a cut-off of 4 µM for IC50 and -50% for Amax)
share of sensitive cells expressing wild-type p53 (43/47): 91.5%
share of p53 wild-type cell lines scored insensitive (57/100 p53 wild-type cell lines): 57%
number of insensitive cell lines in wider cell line compendium (634 cell lines): 557
number of sensitive cell lines in wider cell line compendium (634 cell lines): 77
Amax (697, TP53 WT): -96.96%
sensitivity call (697, TP53 WT): sensitive (Sensitivity call for each compound was applied according to a cut-off of 4 µM for IC50 and -50% for Amax)
Amax (8505C, TP53 MUT): -28.72%
sensitivity call (8505C, TP53 MUT): insensitive (Sensitivity call for each compound was applied according to a cut-off of 4 µM for IC50 and -50% for Amax)
Amax (AN3 CA, TP53 MUT): 5.06%
sensitivity call (AN3 CA, TP53 MUT): insensitive (Sensitivity call for each compound was applied according to a cut-off of 4 µM for IC50 and -50% for Amax)
Amax (B-CPAP, TP53 MUT): 1.71%
sensitivity call (B-CPAP, TP53 MUT): insensitive (Sensitivity call for each compound was applied according to a cut-off of 4 µM for IC50 and -50% for Amax)
Amax (BEN, TP53 MUT): 0.13%
sensitivity call (BEN, TP53 MUT): insensitive (Sensitivity call for each compound was applied according to a cut-off of 4 µM for IC50 and -50% for Amax)
Amax (BFTC-905, TP53 MUT): 0.25%
sensitivity call (BFTC-905, TP53 MUT): insensitive (Sensitivity call for each compound was applied according to a cut-off of 4 µM for IC50 and -50% for Amax)
Amax (BFTC-909, TP53 MUT): 1.37%
sensitivity call (BFTC-909, TP53 MUT): insensitive (Sensitivity call for each compound was applied according to a cut-off of 4 µM for IC50 and -50% for Amax)
Amax (BT-20, TP53 MUT): 1.40%
sensitivity call (BT-20, TP53 MUT): insensitive (Sensitivity call for each compound was applied according to a cut-off of 4 µM for IC50 and -50% for Amax)
Amax (BT-474, TP53 MUT): -3.44%
sensitivity call (BT-474, TP53 MUT): insensitive (Sensitivity call for each compound was applied according to a cut-off of 4 µM for IC50 and -50% for Amax)
Amax (CAL-12T, TP53 MUT): -18.61%
sensitivity call (CAL-12T, TP53 MUT): insensitive (Sensitivity call for each compound was applied according to a cut-off of 4 µM for IC50 and -50% for Amax)
Amax (CAL-78, TP53 MUT): -1.01%
sensitivity call (CAL-78, TP53 MUT): insensitive (Sensitivity call for each compound was applied according to a cut-off of 4 µM for IC50 and -50% for Amax)
Amax (CHL-1, TP53 MUT): -46.61%
sensitivity call (CHL-1, TP53 MUT): insensitive (Sensitivity call for each compound was applied according to a cut-off of 4 µM for IC50 and -50% for Amax)
Amax (CHP-212, TP53 WT): -71.98%
sensitivity call (CHP-212, TP53 WT): sensitive (Sensitivity call for each compound was applied according to a cut-off of 4 µM for IC50 and -50% for Amax)
Amax (COLO 205, TP53 MUT): -1.62%
sensitivity call (COLO 205, TP53 MUT): insensitive (Sensitivity call for each compound was applied according to a cut-off of 4 µM for IC50 and -50% for Amax)
Amax (COLO 792, TP53 WT): 2.74%
sensitivity call (COLO 792, TP53 WT): insensitive (Sensitivity call for each compound was applied according to a cut-off of 4 µM for IC50 and -50% for Amax)
Amax (COR-L23, TP53 WT): -1.38%
sensitivity call (COR-L23, TP53 WT): insensitive (Sensitivity call for each compound was applied according to a cut-off of 4 µM for IC50 and -50% for Amax)
Amax (Capan-1, TP53 MUT): 30.74%
sensitivity call (Capan-1, TP53 MUT): insensitive (Sensitivity call for each compound was applied according to a cut-off of 4 µM for IC50 and -50% for Amax)
Amax (ChaGo-K-1, TP53 MUT): -18.45%
sensitivity call (ChaGo-K-1, TP53 MUT): insensitive (Sensitivity call for each compound was applied according to a cut-off of 4 µM for IC50 and -50% for Amax)
Amax (DMS 53, TP53 MUT): 9.69%
sensitivity call (DMS 53, TP53 MUT): insensitive (Sensitivity call for each compound was applied according to a cut-off of 4 µM for IC50 and -50% for Amax)
Amax (DU 145, TP53 MUT): -4.91%
sensitivity call (DU 145, TP53 MUT): insensitive (Sensitivity call for each compound was applied according to a cut-off of 4 µM for IC50 and -50% for Amax)
Amax (Daoy, TP53 MUT): 2.94%
sensitivity call (Daoy, TP53 MUT): insensitive (Sensitivity call for each compound was applied according to a cut-off of 4 µM for IC50 and -50% for Amax)
Amax (EB2, TP53 MUT): -5.89%
sensitivity call (EB2, TP53 MUT): insensitive (Sensitivity call for each compound was applied according to a cut-off of 4 µM for IC50 and -50% for Amax)
Amax (EFE-184, TP53 MUT): -2.73%
sensitivity call (EFE-184, TP53 MUT): insensitive (Sensitivity call for each compound was applied according to a cut-off of 4 µM for IC50 and -50% for Amax)
Amax (EFO-21, TP53 MUT): 5.85%
sensitivity call (EFO-21, TP53 MUT): insensitive (Sensitivity call for each compound was applied according to a cut-off of 4 µM for IC50 and -50% for Amax)
Amax (FU-OV-1, TP53 MUT): -2.32%
sensitivity call (FU-OV-1, TP53 MUT): insensitive (Sensitivity call for each compound was applied according to a cut-off of 4 µM for IC50 and -50% for Amax)
Amax (FaDu, TP53 MUT): 8.93%
sensitivity call (FaDu, TP53 MUT): insensitive (Sensitivity call for each compound was applied according to a cut-off of 4 µM for IC50 and -50% for Amax)
Amax (G-401, TP53 WT): -87.03%
sensitivity call (G-401, TP53 WT): sensitive (Sensitivity call for each compound was applied according to a cut-off of 4 µM for IC50 and -50% for Amax)
Amax (GI-1, TP53 MUT): -2.97%
sensitivity call (GI-1, TP53 MUT): insensitive (Sensitivity call for each compound was applied according to a cut-off of 4 µM for IC50 and -50% for Amax)
Amax (GMS-10, TP53 MUT): -4.00%
sensitivity call (GMS-10, TP53 MUT): insensitive (Sensitivity call for each compound was applied according to a cut-off of 4 µM for IC50 and -50% for Amax)
Amax (HCC1806, TP53 MUT): 1.11%
sensitivity call (HCC1806, TP53 MUT): insensitive (Sensitivity call for each compound was applied according to a cut-off of 4 µM for IC50 and -50% for Amax)
Amax (HCC1954, TP53 MUT): -0.81%
sensitivity call (HCC1954, TP53 MUT): insensitive (Sensitivity call for each compound was applied according to a cut-off of 4 µM for IC50 and -50% for Amax)
Amax (HCC-15, TP53 MUT): -21.49%
sensitivity call (HCC-15, TP53 MUT): insensitive (Sensitivity call for each compound was applied according to a cut-off of 4 µM for IC50 and -50% for Amax)
Amax (HCT-15, TP53 MUT): -20.00%
sensitivity call (HCT-15, TP53 MUT): insensitive (Sensitivity call for each compound was applied according to a cut-off of 4 µM for IC50 and -50% for Amax)
Amax (HLF, TP53 MUT): -3.09%
sensitivity call (HLF, TP53 MUT): insensitive (Sensitivity call for each compound was applied according to a cut-off of 4 µM for IC50 and -50% for Amax)
Amax (HMC-1-8, TP53 MUT): -1.67%
sensitivity call (HMC-1-8, TP53 MUT): insensitive (Sensitivity call for each compound was applied according to a cut-off of 4 µM for IC50 and -50% for Amax)
Amax (Hep G2, TP53 WT): -62.73%
sensitivity call (Hep G2, TP53 WT): sensitive (Sensitivity call for each compound was applied according to a cut-off of 4 µM for IC50 and -50% for Amax)
IC50 (Homo sapiens, 8-MG-BA, TP53 MUT): > 8 µM
IC50 (Homo sapiens, 42-MG-BA, TP53 MUT): > 8 µM
IC50 (Homo sapiens, 697, TP53 WT): 1.59 µM
IC50 (Homo sapiens, 769-P, TP53 WT): 3.01 µM
IC50 (Homo sapiens, 786-0, 786-O, TP53 MUT): > 8 µM
IC50 (Homo sapiens, 5637, TP53 MUT): > 8 µM
IC50 (Homo sapiens, 8505C, TP53 MUT): > 8 µM
